Test results as given in patent US20040202652A1, “Methods and compositions for control of bone formation via modulation of leptin activity” (Baylor College of Medicine, priority 1999, published 2004).
“Also recorded” adds a separate entry of the source.

Key:
Stat3 phosphorylation = assay: Western blot analysis of Stat3 phosphorylation in primary osteoblast cultures; assay type: cell-based, mice
Protocol: (§1) Expression of leptin in osteoblasts was studied in subconfluent primary osteoblast cultures from wild-type mice which were maintained for 4 days in 10% FBS mineralization medium and then subsequently switched to 0.5% for 2 days and replaced daily. Medium was replaced 2 hours before a 20 min treatment with 80 ng/mL leptin (Sigma) or 40 ng/mL Oncostatin M (R&D Diagnostics) or vehicle. RNA extractions were performed using Triazol (Gibco). Northern blots were performed with 15 μg of total RNA according to methods well known in the art.
To determine whether or not leptin could transduce its signal in osteoblasts, serum-starved primary osteoblasts isolated from wild-type mice were treated with leptin. […]
(§2) The phosphorylation of Stat3, a downstream effector of leptin signaling in its target cells (Tartaglia et al., 1995, Cell 83, 1263-1271; Baumann et al., 1996, Proc Natl Acad Sci USA 93, 8374-8378; Ghilardi et al., 1996, Proc Nati Acad Sci USA 93, 6231-6235; Vaisse et al., 1996, Nat Genet 14, 95-97), was monitored, in addition to the expression of two immediate early genes whose transcription is increased following leptin treatment of target cells (Elmquist et al., 1997, Endocrinology 138, 839-842). […]

Tis11 and c-fos genes = assay: Northern blot analysis of immediate early gene expression in primary osteoblast cultures; assay type: cell-based, mice; conditions: 20 min treatment
Protocol: as §1
as §2, with “839-842). As a positive control oncostatin-M that induces Stat3 phosphorylation and activates the expression of the same two immediate early genes in osteoblasts (Levy et al., 1996, Endocrinology 137, 1159-1165) was utilized. Western blot analysis was performed to determine Stat3 phosphorylation as follows.” for “839-842).”

[1] = system: primary osteoblast cultures from wild-type mice; assay: long-term leptin treatment of primary osteoblast cultures (van Gieson and von Kossa staining); assay type: cell-based; conditions: 1.2 μg/mL for 5 days, versus control (vehicle) cultures
Protocol: To determine whether or not leptin could transduce its signal in osteoblasts, serum-starved primary osteoblasts isolated from wild-type mice were treated with leptin. Primary osteoblast cultures from calvaria of newborn wild-type or db/db mice were established as previously described (Ducy et al., 1999, Genes Dev 13, 1025-1036) and maintained in mineralization medium (αMEMI 0.1 mg/mL ascorbic acid; 5 mM […]) supplemented with 10% […]. Cultures of mutant cells were maintained in this medium for 15 days before analysis. Cultures derived from wild-type mice were maintained for 10 days in this medium then the percentage of serum was reduced to 0.5% and the medium supplemented with 1.2 μg/mL leptin (Sigma) or vehicle for 5 days.
Finally, the effect of a long-term leptin treatment of primary osteoblast cultures from wild-type mice on extracellular matrix synthesis and bone matrix mineralization was determined. The presence of a collagen-rich extracellular matrix and of mineralization nodules was assessed by whole-mount staining of the cultures by the van Gieson and von Kossa reagent, respectively. No difference was observed when assessing collagen synthesis or mineralization nodule formation between control and leptin-treated cultures (FIG. 5E).

ob/ob mice [2] = assay: intracerebroventricular infusion of leptin in ob/ob mice, bone histology and histomorphometry; assay type: in vivo; conditions: ovariectomized ob/ob mice, third ventricle, 8 ng/hr, 28 days, versus PBS
Protocol: (§3) Histologic analysis was performed on undecalcified sections stained with the von Kossa reagent and counterstained with Kernechtrot. In 3 and 6 month-old mice the presence of many more thick trabeculae in the bones of ob/ob mice compared to those of wild-type mice was observed (FIG. 1B). The cortical bone was not affected. Histomorphometric quantification according to standard techniques were performed (Parfitt et al., 1987, J Bone Min Res 2, 595-610) using the Osteomeasure Analysis System (Osteometrics, Atlanta). Statistical differences between groups (n=4 to 6) were assessed by Student's test. […] The functional consequences of this increase in bone mass were analyzed by comparing the biomechanical properties of long bones of 6 month-old ob/ob mice, wild-type mice, and wild-type mice that have been ovariectomized (wild-type-ovx) for 4 months to mimic the hypogonadic state of the ob/ob mice. An assay in which femora were tested to failure by three-point bending on a servo-hydrolic testing machine (Zwick GmbH & Co.) at a constant displacement rate of 10 mm/min was used to determine failure load, which is a measure of the strength of the bones. […] Analysis of the bones of the db/db mice that have an inactivating mutation of the leptin receptor was also performed (Tartaglia et al., 1995, Cell 83, 1263-1271). Like the ob/ob mice, the db/db mice are obese and hypogonadic. There was an increase in the number of trabeculae in both long bones and vertebrae similar to that observed in ob/ob mice (FIG. IE) resulting in a 3-fold increase in bone volume compared to wild-type mice (FIG. 1F).
The increase in bone mass could be due to an increase in osteoblastic bone formation, to a decrease in osteoclastic bone resorption, or to a combination of both abnormalities. To study osteoblast function in vivo, the rate of bone formation was quantified following double labeling with calcein, a marker of newly formed bone (FIG. 3A) as described (Ducy et al., 1999, Genes Dev 13, 1025-1036). Calcein was injected twice at 8 day intervals and animals were sacrificed two days later. In 3 month-old, and 6 month-old ob/ob mice there was a 70% and 60%, respectively, increase of the bone formation rate compared to the one of wild-type littermates (FIG. 3B).
Lastly, the issue of whether leptin binding to its hypothalamic receptor could correct the high bone mass phenotype of the ob/ob mice as it can rescue their obesity phenotype was addressed. To that end pumps delivering either PBS or leptin (8 ng/hr) in the third ventricle of ob/ob mice were inserted as follows. Animals were anesthetized with avertin and placed on a stereotaxic instrument (Stoelting). The calvaria was exposed and a 0.7 mm hole was drilled upon bregma. A 28-gauge cannula (Brain infusion kit U, Alza) was implanted into the third ventricle according to the following coordinates: midline, −0.3 AP, 3 mm ventral (0 point bregma). The cannula was secured to the skull with cyanoacrylate, and attached with Tygon tubing to an osmotic pump (Alza) placed in the dorsal subcutaneous space of the animal. The rate of delivery was 0.25:1/hour (8 ng/hr of leptin (Sigma)) or PBS for 28 days. The dosage has been previously shown to have no effect when administered systemically (Halaas et al., 1997, Proc Nati Acad Sci USA 94, 8878-8883). […]

[3] = serum leptin radioimmunoassay in centrally infused ob/ob mice; assay type: in vivo; conditions: after intracerebroventricular infusion, 8 ng/hr, 28 days
Protocol: The coexistence of a high bone mass phenotype and of hypogonadism was so exceptional that it raised the hypothesis that bone resorption might be defective in these mice. The increased urinary elimination of deoxypyridinoline crosslinks (Dpd), a biochemical marker of bone resorption (Eyre et al., 1988, Biochem 252, 494-500), in the ob/ob mice argued against this hypothesis (wild-type: 10.5±2.5 nM Dpd/mM creatinine; ob/ob: 24.0 b 4.0 nM Dpd/mM creatinine). Deoxypyridinoline crosslinks were measured in morning urines using the Pyrilinks-D immunoassay kit (Metra Biosystem). Creatinine values were used for standardization between samples (Creatinine kit, Metra Biosystem). Circulating concentration of […] and leptin were quantified by radioimmunoassays, using the third generation estradiol kit (Diagnostic system laboratories) and the mouse leptin RIA kit (Linco), respectively. […] Coadministration of an estrogen analog with an Ob or ObR inhibitor further increases the high bone mass phenotype.
Lastly, the issue of whether leptin binding to its hypothalamic receptor could correct the high bone mass phenotype of the ob/ob mice as it can rescue their obesity phenotype was addressed. […]

[4] = 8 ng/hr dosage, systemic; cited from earlier work
ob/ob mice [5] = assay: 17 β-estradiol pellet treatment to correct hypogonadism of ob/ob mice; assay type: in vivo
Protocol: as §3
Nevertheless, to address this point more thoroughly the hypogonadism of the ob/ob mice was exploited. Hypogonadism normally leads to an increase in osteoclasts number and in bone resorptive activity. Thus, if the osteoclasts of the ob/ob mice were functional, correcting the hypogonadism of these mice should decrease their rate of bone resorption by diminishing the number of osteoclasts and thereby should further increase their bone mass. On the other hand, if the osteoclasts of the ob/ob mice were not functioning properly, correcting their hypogonadism should not affect the severity of their high bone mass phenotype. To determine which of these two possibilities was correct, 17 β-estradiol or placebo pellets (Innovative Research of America) were implanted subcutaneously in 2-month-old female ob/ob mice to maintain a serum concentration of 250 pg/mL. These animals were analyzed after a 3-month treatment period.

[6] = end of the 3-month treatment period
[7] = female ob/ob mice, subcutaneous pellets, 3-month treatment

Row | Molecule | Stat3 phosphorylation, several doses (Stat3 phosphorylation; several doses, physiologic and supraphysiologic) | expression of Tis11 and c-fos (Tis11 and c-fos genes) | collagen synthesis (van Gieson staining) [1] | matrix mineralization / mineralization nodule formation (von Kossa staining) [1] | bone appearance, classical histology (ob/ob mice [2]) | bone formation rates (ob/ob mice [2]) | bone volume (ob/ob mice [2]) | number of trabeculae (ob/ob mice [2]) | trabeculae thickness (ob/ob mice [2]) | leptin in the serum [3] | effect of the dosage when administered systemically [4] | increase in bone volume, treated ob/ob mice compared to estradiol-treated wild-type mice (ob/ob mice [5]; [6]) [%] | increase in bone volume, treated ob/ob mice compared to untreated wild-type mice (ob/ob mice [5]; [6]) [fold] | correction of hypogonadism (aspect of uteri, levels of estradiol in blood) (ob/ob mice [5]; [7]) | high bone mass phenotype compared to placebo treated ob/ob mice (ob/ob mice [5]; [7]) | osteoclast number (ob/ob mice [5]; [7]) | correction of hypogonadism (aspect of uteri, levels of estradiol in blood) (ob/ob mice [5]; female ob/ob mice, subcutaneous pellets, 3-month treatment, listed as estradiol) | bone trabeculae, histological analysis of vertebrae (ob/ob mice [5]; treated wt and even more treated ob/ob mice) | Stat3 phosphorylation (Stat3 phosphorylation; primary osteoblasts from wild-type mice, serum-starved)
1 | leptin: endogenous polypeptide product of an ob gene; polypeptide hormone (Sigma) | failed to induce | not | No difference; also recorded: No effect | No difference; also recorded: No effect | regained a normal appearance | significantly decreased | significantly decreased | fewer trabeculae | significantly decreased | No leptin | no effect | – | – | – | – | – | – | – | –
2 | C[C@]12CC[C@@H]3c4ccc(O)cc4CC[C@H]3[C@@H]1CC[C@@H]2O [17 β-estradiol] | – | – | – | – | – | – | – | – | – | – | – | 50 | 3 | correction of the uterus atrophy | further increase of the high bone mass phenotype | normalization of the osteoclast number | corrected their hypogonadism | significant increase in bone trabeculae | –
3 | Oncostatin-M: positive control that induces Stat3 phosphorylation and immediate early gene expression in osteoblasts (protein, UniProt P13725 26-221, looked up) Oncostatin-M: AAIGSCSKEYRVLLGQLQKQTDLMQDTSRLLDPYIRIQGLDVPKLREHCRERPGAFPSEETLRGLGRRGFLQTLNATLGCVLHRLADLEQRLPKAQDLERSGLNIEDLEKLQMARPNILGLRNNIYCMAQLLDNSDTAEPTKAGRGASQPPTPTPASDAFQRKLEGCRFLHGYHRFMHSVGRVFSKWGESPNRSRR | – | quickly and transiently activated | – | – | – | – | – | – | – | – | – | – | – | – | – | – | – | – | did induce
